A value given as a limit tells only on which side of the number the result lay.

This assay deals with T1, recombinant human Lp-PLA2 (Homo sapiens, UniProt Q13093).
T1 sequence (Q13093 22-441): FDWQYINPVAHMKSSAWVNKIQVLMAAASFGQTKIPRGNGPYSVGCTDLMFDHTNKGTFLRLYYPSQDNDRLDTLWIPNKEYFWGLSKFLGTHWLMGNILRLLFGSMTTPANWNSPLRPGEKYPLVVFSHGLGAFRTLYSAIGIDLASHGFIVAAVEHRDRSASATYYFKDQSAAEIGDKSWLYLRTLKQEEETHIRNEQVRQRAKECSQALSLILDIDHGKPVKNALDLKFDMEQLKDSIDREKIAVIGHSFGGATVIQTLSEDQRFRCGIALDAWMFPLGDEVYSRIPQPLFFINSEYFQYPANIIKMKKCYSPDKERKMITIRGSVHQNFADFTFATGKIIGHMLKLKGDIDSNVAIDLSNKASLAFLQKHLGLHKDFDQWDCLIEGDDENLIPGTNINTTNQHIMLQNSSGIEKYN
The assay is described as follows: (1b) hrThioPAF assay, recombinant human Lp-PLA2. In kind it is biochemical. Particulars: Examples 266-412 were tested here, one experiment or average of multiple experiments, read-out: rhLp-PLA2 (pIC50) (converted). The text has this: 1-O-Hexadecyl-2-deoxy-2-thio-S-acetyl-sn-glyceryl-3-phosphorylcholine (2-thio-PAF) is a substrate for PAF-hydrolases (PAF-AH) commercially available from Cayman Chemical. Upon cleavage with PAF-AH, the free thiol is released at the sn-2 position and can then react with 7-diethylamino-3-(4′-maleimidylphenyl)-4-methylcoumarin (CPM) a thiol-reactive coumarin. This reaction (Michael addition) results in an increase in fluorescence. Inhibitors of Lp-PLA2 therefore prevent this cleavage and no fluorescent increase is observed.
The Thio-PAF assay was run as an unquenched 20 μL assay. The source plate containing the compounds to be tested was prepared by making 1:3 (by volume) serial dilution of the compounds within DMSO on 384-well microplate. Then, 5 μL of the compounds on compound source plate were transferred into 384 well Greiner 784076 (black) plates using STAR+(Hamilton) liquid dispenser. 10 μL of recombinant human Lp-PLA2 enzyme (20 pM rhLp-PLA2 in assay buffer of 50 mM HEPES, pH 7.4, 150 mM NaCl, 1 mM CHAPS) was added to each well of the plate. 5 μL of substrate comprising 40 μM 2-thio-PAF [from ethanol stock], 40 μM CPM [from a DMSO stock] and 400 μM NEM (N-ethylmaleimide) [made fresh daily in DMSO] in assay buffer (50 mM HEPES, pH 7.4, 150 mM NaCl, 1 mM CHAPS) was added to 384 well Greiner 784076 black plates. Plates were vortexed for 10 sec. The plate was covered to protect it from light and incubated for 20 min at 25° C. The plates were read for fluorescence intensity at ex: 380 nm/em: 485 nm using Envision plate reader (Perkin Elmer). Raw data were transferred to Excel software and pIC50 data, curve and QC analysis was conducted by using XL fit module in Excel.
For `O=c1nc(OCc2ccc(F)c(Br)c2)cc2n1CC1CNCCN21` (centres unmarked) [Example E276, 7-((3-Bromo-4-fluorobenzyl)oxy)-3,4,11,11a-tetrahydro-1H-pyrazino[1′,2′:3,4] imidazo [1,2-c]pyrimidin-9(2H)-one], the IC50 is no more than 10 µM.
In the case of `O=c1nc(OCc2cccc(F)c2F)cc2n1CC1CS(=O)(=O)CCN21` (centres unmarked) [Example E363, 7-((2,3-Difluorobenzyl)oxy)-3,4,11,11a-tetrahydropyrimido[6′,1′:2,3]imidazo[5,1-c][1,4] thiazin-9(1H)-one 2,2-dioxide] it was no more than 10 µM; in that of `N#Cc1cc(COc2cc3n(c(=O)n2)CC2CNCCN32)ccc1OC1CCCC1` (centres unmarked) [Example E317, 2-(Cyclopentyloxy)-5-(((9-oxo-2,3,4,9,11,11a-hexahydro-1H-pyrazino[1,2′:3,4]imidazo[1,2-c]pyrimidin-7-yl)oxy)methyl)benzonitrile], no more than 0.1 µM; in that of `N#Cc1cc(COc2cc3n(c(=O)n2)CC2CNCCN32)ccc1OC1CCC1` (centres unmarked) [Example E316, 2-Cyclobutoxy-5-(((9-oxo-2,3,4,9,11,11a-hexahydro-1H-pyrazino[1′,2′:3,4]imidazo[1,2-c]pyrimidin-7-yl)oxy)methyl)benzonitrile], no more than 10 µM.
In the case of `CS(=O)(=O)N1CCN2c3cc(NCc4cccc(F)c4F)nc(=O)n3CC2C1` (centres unmarked) [Example E311, 7-((2,3-Difluorobenzyl)amino)-2-(methylsulfonyl)-3,4,11,11a-tetrahydro-1H-pyrazino[1′,2′:3,4]imidazo[1,2-c]pyrimidin-9(2H)-one] it was no more than 10 µM; in that of `O=c1nc(OCc2cccc(F)c2F)cc2n1CC1C[S+]([O-])CCN21` (centres unmarked) [Example E362, 7-((2,3-Difluorobenzyl)oxy)-3,4,11,11a-tetrahydropyrimido[6′,1′:2,3]imidazo[5,1-c][1,4] thiazin-9(1H)-one 2-oxide], no more than 10 µM; in that of `N#Cc1cc(CCOc2cc3n(c(=O)n2)CC2(CCOCC2)N3)ccc1F` [Example 404, 2-Fluoro-5-(2-((5-oxo-2′,3,3′,5,5′,6′-hexahydro-1H-spiro[imidazo[1,2-c]pyrimidine-2,4′-pyran]-7-yl)oxy)ethyl)benzonitrile], no more than 10 µM.
For `Cc1ccc(COc2cc3n(c(=O)n2)CC2CNCCN32)cc1C#N` (centres unmarked) [Example E271, 2-Methyl-5-(((9-oxo-2,3,4,9,11,11a-hexahydro-1H-pyrazino[1′,2′:3,4]imidazo [1,2-c]pyrimidin-7-yl)oxy)methyl) benzonitrile] the value was no more than 10 µM.
Regarding `CS(=O)(=O)N1CCN2c3cc(NCc4ccc(F)c(C#N)c4)nc(=O)n3CC2C1` (centres unmarked) [Example E312, 2-Fluoro-5-(((2-(methylsulfonyl)-9-oxo-2,3,4,9,11,11a-hexahydro-1H-pyrazino[1′,2′:3,4]imidazo[1,2-c]pyrimidin-7-yl)amino)methyl)benzonitrile], the IC50 is no more than 10 µM.
As to `Cn1cc(Oc2c(F)cc(COc3cc4n(c(=O)n3)CC3(COC3)N4)cc2F)cn1` [Example E393], the IC50 was no more than 10 µM.
In the case of `N#Cc1cc(COc2ccc(COc3cc4n(c(=O)n3)CC3CNC(=O)CN43)cc2C#N)ccc1F` (centres unmarked) [Example E350, 5-((2-cyano-4-(((3,9-dioxo-2,3,4,9,11,11a-hexahydro-1H-pyrazino[1′,2′:3,4]imidazo[1,2-c]pyrimidin-7-yl)oxy)methyl)phenoxy)methyl)-2-fluorobenzonitrile] it was no more than 10 µM; in that of `O=c1nc(NCc2cccc(F)c2F)cc2n1CC1CSCCN21` (centres unmarked) [Example E377, 7-((2,3-Difluorobenzyl)amino)-3,4,11,11a-tetrahydropyrimido[6′,1′:2,3]imidazo[5,1-c][1,4]thiazin-9(1H)-one], no more than 10 µM.
In the case of `O=c1nc(OCc2cccc(F)c2F)cc2n1CC1CNCCN21` (centres unmarked) [Example E268, 7-((2,3-Difluorobenzyl)oxy)-3,4,11,11a-tetrahydro-1H-pyrazino[1′,2′:3,4] imidazo [1,2-c]pyrimidin-9(2H)-one] it was no more than 10 µM.
In the case of `Cc1ccc(Oc2c(F)cc(COc3cc4n(c(=O)n3)C[C@@H]3C[C@H](O)CN43)cc2F)cn1` [Example E385, (7S,8aS)-3-((3,5-Difluoro-4-((6-methylpyridin-3-yl)oxy)benzyl)oxy)-7-hydroxy-7,8,8a,9-tetrahydropyrrolo[1′,2′:3,4]imidazo[1,2-c]pyrimidin-1(6H)-one] it was no more than 10 µM.
For `O=c1nc(NCc2ccc(F)c(F)c2)cc2n1CC1C[S+]([O-])CCN21` (centres unmarked) [Example E375, 7-((3,4-Difluorobenzyl)amino)-3,4,11,11a-tetrahydropyrimido[6′,1′:2,3]imidazo[5,1-c][1,4]thiazin-9(1H)-one 2-oxide], the IC50 is no more than 10 µM.
For `COc1ccc(COc2cc3n(c(=O)n2)CC2CNCCN32)cc1C#N` (centres unmarked) [Example E278, 2-Methoxy-5-(((9-oxo-2,3,4,9,11,11a-hexahydro-1H-pyrazino[1′,2′:3,4]imidazo [1,2-c]pyrimidin-7-yl)oxy)methyl) benzonitrile] the value was no more than 10 µM; for `N#Cc1cc(COc2cc3n(c(=O)n2)C[C@H]2CC(O)CN32)ccc1F` (stereo in doubt) [Example E381, 2-Fluoro-5-((((7R,8aR)-7-hydroxy-1-oxo-1,6,7,8,8a,9-hexahydropyrrolo[1′,2′:3,4]imidazo[1,2-c]pyrimidin-3-yl)oxy)methyl)benzonitrile], no more than 10 µM; for `O=c1nc(OCc2ccc(F)c(Cl)c2)cc2n1CC1CNCCN21` (centres unmarked) [Example E277, 7-((3-Chloro-4-fluorobenzyl)oxy)-3,4,11,11a-tetrahydro-1H-pyrazino[1′,2′:3,4] imidazo [1,2-c]pyrimidin-9(2H)-one], no more than 10 µM.
In the case of `O=c1nc(OCc2ccc(Cl)c(Br)c2)cc2n1CC1CNCCN21` (centres unmarked) [Example E275, 7-((3-Bromo-4-chlorobenzyl)oxy)-3,4,11,11a-tetrahydro-1H-pyrazino[1′,2′:3,4] imidazo [1,2-c]pyrimidin-9(2H)-one] it was no more than 10 µM; in that of `O=C1CN2c3cc(OCc4cccc(F)c4F)nc(=O)n3CC2CN1` (centres unmarked) [Example E348, 7-((2,3-Difluorobenzyl)oxy)-11,11a-dihydro-1H-pyrazino[1′,2′:3,4]imidazo[1,2-c]pyrimidine-3,9(2H,4H)-dione], no more than 10 µM.
As for `CCOC(=O)C(C)N1CCN2c3cc(OCc4ccc(F)c(F)c4)nc(=O)n3CC2C1` (single isomer, unassigned) [Example E326, Ethyl 2-(7-((3,4-difluorobenzyl)oxy)-9-oxo-3,4,11,11a-tetrahydro-1H-pyrazino[1′,2′:3,4]imidazo[1,2-c]pyrimidin-2(9H)-yl)propanoate], the IC50 is no more than 10 µM.
Regarding `N#Cc1cc(COc2ccc(COc3cc4n(c(=O)n3)CC3CSCCN43)cc2C#N)ccc1F` (centres unmarked) [Example E365, 5-((2-Cyano-4-(((9-oxo-1,3,4,9,11,11a-hexahydropyrimido[6′,1′:2,3]imidazo[5,1-c][1,4]thiazin-7-yl)oxy)methyl)phenoxy)methyl)-2-fluorobenzonitrile], the IC50 was no more than 10 µM.
In the case of `N#Cc1cc(COc2cc3n(c(=O)n2)C[C@H]2C[C@@H](N)CN32)ccc1F` [Example E389, 5-((((7R,8aR)-7-Amino-1-oxo-1,6,7,8,8a,9-hexahydropyrrolo[1′,2′:3,4]imidazo[1,2-c]pyrimidin-3-yl)oxy)methyl)-2-fluorobenzonitrile] it was no more than 10 µM; in that of `O=c1nc(OCc2ccc(F)c(F)c2)cc2n1CC1(CCN(S(=O)(=O)C3CC3)CC1)N2` [Example 410, 1′-(Cyclopropylsulfonyl)-7-((3,4-difluorobenzyl)oxy)-1H-spiro[imidazo[1,2-c]pyrimidine-2,4′-piperidin]-5(3H)-one], no more than 0.001 µM; in that of `O=c1nc(NCc2ccc(F)c(F)c2)cc2n1CC1CSCCN21` (centres unmarked) [Example E374, 7-((3,4-Difluorobenzyl)amino)-3,4,11,11a-tetrahydropyrimido[6′,1′:2,3]imidazo[5,1-c][1,4]thiazin-9(1H)-one], no more than 10 µM.
In the case of `CS(=O)(=O)N1CCN2c3cc(NCc4ccc(F)c(F)c4)nc(=O)n3CC2C1` (centres unmarked) [Example E309, 7-((3,4-Difluorobenzyl)amino)-2-(methylsulfonyl)-3,4,11,11a-tetrahydro-1H-pyrazino[1′,2′:3,4]imidazo[1,2-c]pyrimidin-9(2H)-one] it was no more than 10 µM.
